pIC50: −log10 of the molar value.
Biological target: human PDE10A (Homo sapiens (Human), UniProt Q9Y233)
Experiment: human PDE10A full length assay ([3H]-cGMP SPA)
Assay type: biochemical
Conditions: human PDE10A full length enzyme, 50 nM cGMP + 50 nM [3H]-cGMP, 20 minutes at room temperature; read-out: PDE10A inhibition IC50
Description: The human PDE10A full length assay was performed in 96-well micro titer plates. The reaction mixture of 50 μl contained 20 mM HEPES pH=7.5/10 mM MgCl2/0.05 mg/ml BSA (Sigma cat. #A-7906), 50 nM cGMP (Sigma, cat. #G6129) and 50 nM [3H]-cGMP (GE Healthcare, cat. #TRK392 S.A. 13.2 Ci/mmol), 3.75 ng/well PDE10A enzyme (Enzo Life Science, Lausen, Switzerland cat #SE-534) with or without a specific test compound. A range of concentrations of the potential inhibitor was used to generate data for calculating the concentration of inhibitor resulting in 50% of the effect (e.g. IC50, the concentration of the competitor inhibiting PDE10A activity by 50%). Non-specific activity was tested without the enzyme. The reaction was initiated by the addition of the substrate solution (cGMP and [3H]-cGMP) and allowed to progress for 20 minutes at room temperature. The reaction was terminated by adding 25 μl of YSi-SPA scintillation beads (GE Healthcare, cat. #RPNQ0150) in 18 mM zinc sulphate solution (stop reagent). After 1 h under shaking, the plate was centrifuged one minute at 170 g to allow beads to settle. Afterwards, radioactive counts were measured on a Perkin Elmer TopCount Scintillation plate reader.

Chain of human PDE10A (Q9Y233 other isoform, or with tags, fused parts or gaps): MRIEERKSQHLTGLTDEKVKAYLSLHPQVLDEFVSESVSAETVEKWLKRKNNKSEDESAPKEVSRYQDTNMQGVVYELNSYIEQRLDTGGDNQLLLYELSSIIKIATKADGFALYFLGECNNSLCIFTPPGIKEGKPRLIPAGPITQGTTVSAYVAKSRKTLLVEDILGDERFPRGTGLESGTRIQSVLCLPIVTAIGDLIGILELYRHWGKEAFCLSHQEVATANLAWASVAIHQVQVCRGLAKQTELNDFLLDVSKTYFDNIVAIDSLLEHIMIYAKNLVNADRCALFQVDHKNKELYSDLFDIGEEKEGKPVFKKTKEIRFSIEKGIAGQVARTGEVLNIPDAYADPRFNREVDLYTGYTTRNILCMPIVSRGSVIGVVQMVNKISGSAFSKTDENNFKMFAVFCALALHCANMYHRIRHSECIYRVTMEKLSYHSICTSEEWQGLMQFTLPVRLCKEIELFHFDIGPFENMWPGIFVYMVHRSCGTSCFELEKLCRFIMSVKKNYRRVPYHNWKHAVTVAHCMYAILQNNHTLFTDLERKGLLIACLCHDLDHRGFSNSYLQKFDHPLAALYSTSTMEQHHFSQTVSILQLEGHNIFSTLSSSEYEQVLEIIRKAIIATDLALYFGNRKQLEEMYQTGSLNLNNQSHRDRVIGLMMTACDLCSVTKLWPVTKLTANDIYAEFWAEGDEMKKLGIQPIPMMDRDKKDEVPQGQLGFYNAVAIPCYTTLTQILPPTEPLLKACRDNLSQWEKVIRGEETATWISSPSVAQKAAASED

Compound	pIC50
Cc1cc(CCc2nc(N3CCCC3)nn2C)nn2c(C)c(C(F)(F)F)nc12 [Example 55, 3,8-Dimethyl-6-(2-(1-methyl-3-(pyrrolidin-1-yl)-1H-1,2,4-triazol-5-yl)ethyl)-2-(trifluoro-methyl)imidazo[1,2-b]pyridazine]	7.77
Cc1c(Cl)nc2ccc(C#Cc3nc(N4CCCC4)nn3C)nn12 [Example 38, 2-Chloro-3-methyl-6-((1-methyl-3-(pyrrolidin-1-yl)-1H-1,2,4-triazol-5-yl)ethynyl)-imidazo[1,2-b]pyridazine]	8.88
Cc1nc2c(N(C)C)nc(CCc3nc(N4CCCC4)nn3C)nn2c1C [Example 22, N,N,6,7-Tetramethyl-2-(2-(1-methyl-3-(pyrrolidin-1-yl)-1H-1,2,4-triazol-5-yl)ethyl)-imidazo[1,2-f][1,2,4]triazin-4-amine]	8.70
Cc1c(Cl)nc2ccc(CCc3nc(N4CCCC4)nn3C)nn12 [Example 64, 2-Chloro-3-methyl-6-(2-(1-methyl-3-(pyrrolidin-1-yl)-1H-1,2,4-triazol-5-yl)ethyl)imidazo[1,2-b]pyridazine]	8.26
Cc1nc2c(OC(C)C)cc(CCc3nc(N4CCCC4)nn3C)nn2c1C [Example 27, 8-Isopropoxy-2,3-dimethyl-6-(2-(1-methyl-3-(pyrrolidin-1-yl)-1H-1,2,4-triazol-5-yl)ethyl)imidazo[1,2-b]pyridazine]	8.52

From US9617271B2, “Triazolo compounds” (Hoffmann-La Roche Inc., priority 2012, dated 2017)
